Values quoted from earlier work in patent US20250368755A1, “PEPTIDE THAT SP[…] TO PPC REGION OF SARS-COV-2 SPIKE PROTEIN AND COMPOSITION FOR […]-COV-2 INFECTION USING THE SAME” (priority 2024, published 2025).

Target: S1/S2 region
Conditions: known value; read-out: binding affinity of furin for the cleavage of S1/S2 region; cited from earlier work

In the case of furin, the Kd is given as 16 nM.
